Results as given in US12077503B2, “Substituted cyclic amides and their use as herbicides” (FMC CORPORATION, priority 2015, dated 2024).

What was measured:
Assay type in all cases: in vivo
[1] = test system: ducksalad (Heteranthera limosa); assay: Test B flooded paddy test; conditions: Heteranthera limosa, 360 h, Flood, 250 g ai/ha; visually evaluated after 13 to 15 d; read-out: Plant response rating, Ducksalad (0 to 100 scale where 0 is no effect and 100 is complete control)
Procedure, shortened: (§1)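 Plants at 2-leaf stage flooded to 3 cm above soil, with compounds applied directly to paddy water and that depth maintained. Plants kept in greenhouse 13–15 d. Visual rating versus controls on a 0 (no effect) to 100 (complete control) scale.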

[2] = test system: barnyardgrass (Echinochloa crus-galli); assay: Test B flooded paddy test; conditions: Echinochloa crus-galli, 360 h, Flood, 250 g ai/ha; visually evaluated after 13 to 15 d; read-out: Plant response rating, Barnyardgrass (0 to 100 scale where 0 is no effect and 100 is complete control)
Procedure, shortened: as §1

rice (Oryra sativa) = assay: Test B flooded paddy test; conditions: Oryza sativa, 360 h, Flood, 250 g ai/ha; visually evaluated after 13 to 15 d; read-out: Plant response rating, Rice (0 to 100 scale where 0 is no effect and 100 is complete control)
Procedure, shortened: as §1

[3] = test system: sedge, umbrella (small-flower umbrella sedge, Cyperus difformis); assay: Test B flooded paddy test; conditions: Cyperus difformis, 360 h, Flood, 250 g ai/ha; visually evaluated after 13 to 15 d; read-out: Plant response rating, Sedge, Umbrella (0 to 100 scale where 0 is no effect and 100 is complete control)
Procedure, shortened: as §1

[4] = test system: ryegrass, Italian (Italian ryegrass, Lolium multiflorum); assay: Test A preemergence; conditions: Lolium multiflorum, pre-emergence, 240 h, Preemergence
Procedure, shortened: (§2)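 Seeded soil received test chemicals as a preemergence directed spray, and seedlings at one to two leaves, 2–10 cm tall, received them postemergence, in a non-phytotoxic, surfactant-containing solvent mixture. Pots were held in a greenhouse for approximately 10 d, then rated for injury from 0, no effect, to 100, complete control.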

[5] = test system: ragweed (common ragweed, Ambrosia elatior); assay: Test A preemergence; conditions: Ambrosia artemisiifolia, pre-emergence, 240 h, Preemergence
Procedure, shortened: as §2

[6] = test system: pigweed (Amaranthus retroflexus); assay: Test A preemergence; conditions: Amaranthus retroflexus, pre-emergence, 240 h, Preemergence
[7] = test system: giant foxtail (Setaria faberii); assay: Test A preemergence; conditions: Setaria faberi, pre-emergence, 240 h, Preemergence
Procedure, shortened: as §2

[8] = test system: barnyardgrass (Echinochloa crus-galli); assay: Test A preemergence; conditions: Echinochloa crus-galli, pre-emergence, 240 h, Preemergence
Procedure, shortened: as §2

Kochia (Kochia scoparia) [9] = assay: Test A preemergence; conditions: Bassia scoparia, pre-emergence, 240 h, Preemergence
Procedure, shortened: as §2

[10] = test system: ryegrass, Italian (Italian ryegrass, Lolium multiflorum); assay: Test A postemergence; conditions: Lolium multiflorum, post-emergence, 240 h, Postemergence, read-out: Ryegrass, Italian plant response rating (0 to 100 scale)
Procedure, shortened: as §2

[11] = test system: ragweed (common ragweed, Ambrosia elatior); assay: Test A postemergence; conditions: Ambrosia artemisiifolia, post-emergence, 240 h, Postemergence, read-out: Ragweed plant response rating (0 to 100 scale)
Procedure, shortened: as §2

[12] = test system: pigweed (Amaranthus retroflexus); assay: Test A postemergence; conditions: Amaranthus retroflexus, post-emergence, 240 h, Postemergence, read-out: Pigweed plant response rating (0 to 100 scale)
Procedure, shortened: as §2

[13] = test system: giant foxtail (Setaria faberii); assay: Test A postemergence; conditions: Setaria faberi, post-emergence, 240 h, Postemergence, read-out: Foxtail, Giant plant response rating (0 to 100 scale)
Procedure, shortened: as §2

[14] = test system: barnyardgrass (Echinochloa crus-galli); assay: Test A postemergence; conditions: Echinochloa crus-galli, post-emergence, 240 h, Postemergence
Procedure, shortened: as §2

corn (Zea mays) = assay: Test A postemergence; conditions: Zea mays, post-emergence, 240 h, Postemergence, read-out: Corn plant response rating (0 to 100 scale)
Procedure, shortened: as §2

[15] = test system: wheat (Triticum aestivum); assay: Test A postemergence; conditions: Triticum aestivum, post-emergence, 240 h, Postemergence, read-out: Wheat plant response rating (0 to 100 scale)
Procedure, shortened: as §2

[16] = test system: blackgrass (Alopecurus myosuroides); assay: Test A postemergence; conditions: Alopecurus myosuroides, post-emergence, 240 h, Postemergence, read-out: Blackgrass plant response rating (0 to 100 scale)
Procedure, shortened: as §2

Kochia (Kochia scoparia) [17] = assay: Test A postemergence; conditions: Bassia scoparia, post-emergence, 240 h, Postemergence, read-out: Kochia plant response rating (0 to 100 scale)
Procedure, shortened: as §2

[18] = 125 g ai/ha, visual rating about 10 d after treatment
[19] = 31 g ai/ha, 0 is no effect, 100 is complete control

CN1C[C@H](c2ccc3c(c2)OC(F)(F)O3)[C@@H](C(=O)Nc2ccc(F)nc2F)C1=O [Compound 1350]
pest or weed control at 250 g/ha [1]: 90% | pest or weed control at 250 g/ha [2]: 90% | pest or weed control at 250 g/ha (rice (Oryra sativa)): 0% | pest or weed control at 250 g/ha [3]: 0% | pest or weed control at 31 g/ha ([4]; 31 g ai/ha, 0 to 100 scale where 0 is no effect and 100 is complete control, read-out: Ryegrass, Italian plant response rating): 30% | pest or weed control at 125 g/ha ([4]; 125 g ai/ha, 0 to 100 scale (0 no effect, 100 complete control), read-out: Plant response rating, Ryegrass, Italian): 30% | pest or weed control at 31 g/ha ([5]; 31 g ai/ha, 0 to 100 scale where 0 is no effect and 100 is complete control, read-out: Ragweed plant response rating): 50% | pest or weed control at 125 g/ha ([5]; 125 g ai/ha, 0 to 100 scale (0 no effect, 100 complete control), read-out: Plant response rating, Ragweed): 80% | pest or weed control at 31 g/ha ([6]; 31 g ai/ha, 0 to 100 scale where 0 is no effect and 100 is complete control, read-out: Pigweed plant response rating): 70% | pest or weed control at 125 g/ha ([6]; 125 g ai/ha, 0 to 100 scale (0 no effect, 100 complete control), read-out: Plant response rating, Pigweed): 90% | pest or weed control at 31 g/ha ([7]; 31 g ai/ha, 0 to 100 scale where 0 is no effect and 100 is complete control, read-out: Foxtail, Giant plant response rating): 100% | pest or weed control at 125 g/ha ([7]; 125 g ai/ha, 0 to 100 scale (0 no effect, 100 complete control), read-out: Plant response rating, Foxtail, Giant): 100% | pest or weed control at 31 g/ha ([8]; 31 g ai/ha, 0 to 100 scale where 0 is no effect and 100 is complete control, read-out: Barnyardgrass plant response rating): 90% | pest or weed control at 125 g/ha ([8]; 125 g ai/ha, 0 to 100 scale (0 no effect, 100 complete control), read-out: Plant response rating, Barnyardgrass): 90% | pest or weed control at 31 g/ha (Kochia (Kochia scoparia) [9]; 31 g ai/ha, 0 to 100 scale where 0 is no effect and 100 is complete control, read-out: Kochia plant response rating): 30% | pest or weed control at 125 g/ha (Kochia (Kochia scoparia) [9]; 125 g ai/ha, 0 to 100 scale (0 no effect, 100 complete control), read-out: Plant response rating, Kochia): 70% | pest or weed control at 125 g/ha [10, 18]: 20% | pest or weed control at 31 g/ha [10, 19]: 20% | pest or weed control at 125 g/ha [11, 18]: 60% | pest or weed control at 31 g/ha [11, 19]: 0% | pest or weed control at 125 g/ha [12, 18]: 70% | pest or weed control at 31 g/ha [12, 19]: 30% | pest or weed control at 125 g/ha [13, 18]: 90% | pest or weed control at 31 g/ha [13, 19]: 70% | pest or weed control at 125 g/ha ([14]; 125 g ai/ha, visual rating about 10 d after treatment, read-out: Barnyardgrass plant response rating (0 to 100 scale, 0 no effect, 100 complete control)): 90% | pest or weed control at 31 g/ha ([14]; 31 g ai/ha, 0 is no effect, 100 is complete control, read-out: Barnyardgrass plant response rating (0 to 100 scale)): 60% | plant injury at 125 g/ha (corn (Zea mays); [18]): 50% | plant injury at 31 g/ha (corn (Zea mays); [19]): 30% | plant injury at 125 g/ha [15, 18]: 50% | plant injury at 31 g/ha [15, 19]: 20% | pest or weed control at 125 g/ha [16, 18]: 50% | pest or weed control at 31 g/ha [16, 19]: 0% | pest or weed control at 125 g/ha (Kochia (Kochia scoparia) [17]; [18]): 70% | pest or weed control at 31 g/ha (Kochia (Kochia scoparia) [17]; [19]): 50%
